Laboratory results published in US9072759B2 (priority 2008, dated 2015).
Converted amounts (≈) assume the structure as drawn. Like-named read-outs stand apart in the source and are kept apart here.

How the values were obtained:
[1] = system: L. pneumophila strain ATCC 33153; assay: microbe, parasite or virus in culture; assay type: cell-based; conditions: Legionella pneumophila
[2] = system: L. monocytogenes strain EGD; assay: microbe, parasite or virus in culture; assay type: cell-based; conditions: Listeria monocytogenes
F. tularensis = assay: microbe, parasite or virus in culture; assay type: cell-based
Y. pestis = assay: microbe, parasite or virus in culture; assay type: cell-based
in vivo [3] = conditions: rat
B. pseudomallei = assay: microbe, parasite or virus in culture; assay type: cell-based
clinical = conditions: in vivo
in vivo [4] = conditions: rodents and non human primates
in vivo [5] = conditions: monkey
B. mallei = assay: microbe, parasite or virus in culture; assay type: cell-based
B. anthracis [6] = assay: microbe, parasite or virus in culture; assay type: cell-based
[7] = in vivo
B. anthracis [8] = conditions: approved or proposed for post-exposure anthrax indications; cited from earlier work
[9] = ATCC33153, pH 6.5, read-out: MIC, L. pneumophila, pH-adjusted broth
[10] = ATCC33153, pH 7.4, read-out: MIC, L. pneumophila, pH-adjusted broth
[11] = ATCC33153, read-out: MIC, L. pneumophila
[12] = read-out: MIC, L. monocytogenes

## CC[C@H]1OC(=O)[C@H](C)[C@@H](O[C@H]2C[C@@](C)(OC)[C@@H](O)[C@H](C)O2)[C@H](C)[C@@H](O[C@@H]2O[C@H](C)C[C@H](N(C)C)[C@H]2O)[C@](C)(O)C[C@@H](C)CN(C)[C@H](C)[C@@H](O)[C@]1(C)O [AZI, Azithromycin]
[1]; ATCC33153
  MIC: 0.016 µg/mL (≈ 0.0214 µM)
[1]; [9]
  MIC: 0.25 µg/mL (≈ 0.334 µM)
[1]; [10]
  MIC: ~0.01 µg/mL (≈ 0.0134 µM)
[1]; [11]
  MIC: 0.016 µg/mL (≈ 0.0214 µM)
[2]
  MIC: 1 µg/mL (≈ 1.34 µM)
[2]; [12]
  MIC: 1 µg/mL (≈ 1.34 µM)

## CC[C@H]1OC(=O)[C@@](C)(F)C(=O)[C@H](C)[C@@H](OC2OC(C)CC(N(C)C)C2O)[C@@](C)(OC)C[C@@H](C)C(=O)[C@H](C)[C@H]2N(CCCCn3cc(-c4cccc(N)c4)nn3)C(=O)O[C@]12C (some centres unmarked) [CEM-101, 11-N-4-(3-aminophenyl)-[1,2,3]triazol-1-yl]-butyl}-5-desosaminyl-3-oxo-2-fluoro-erythronolide A,-11,12-cyclic carbamate]
F. tularensis; F. tularensis, 30 strains
  MIC Range: <0.08 to 4 µg/mL
F. tularensis; Francisella tularensis
  MIC50: 0.03 µg/mL (≈ 0.0355 µM)
  MIC90: 2 µg/mL (≈ 2.37 µM)
[1]; ATCC33153
  MIC: 0.004 µg/mL (≈ 0.00473 µM)
[1]; [9]
  MIC: 0.01 µg/mL (≈ 0.0118 µM)
[1]; [10]
  MIC: 0.005 µg/mL (≈ 0.00592 µM)
[1]; [11]
  MIC: 0.004 µg/mL (≈ 0.00473 µM)
Y. pestis; Y. pestis, 30 strains
  MIC Range: 0.25 to 2 µg/mL
Y. pestis; Yersinia pestis
  MIC50: 1 µg/mL (≈ 1.18 µM)
  MIC90: 2 µg/mL (≈ 2.37 µM)
In vivo [3]
  Kp: 5
B. pseudomallei; B. pseudomallei, 30 strains
  MIC Range: 16 µg/mL (≈ 18.9 µM)
B. pseudomallei; Burkholderia pseudomallei
  MIC50: 16 µg/mL (≈ 18.9 µM)
  MIC90: 16 µg/mL (≈ 18.9 µM)
[2]
  MIC: 0.004 µg/mL (≈ 0.00473 µM)
[2]; pH 7.4, read-out: MIC, L. monocytogenes (EDG), pH-adjusted broth
  MIC: 0.0039 µg/mL (≈ 0.00462 µM)
[2]; [12]
  MIC: 0.004 µg/mL (≈ 0.00473 µM)
clinical
  AUC: 40 to 28600 ng·h/mL
  Cmax: 22 to 1960 ng/mL
  Tmax: 1.5 to 6 h
  half-life: 2.2 to 7.9 h
In vivo [4]
  Kp: 17 to 100
In vivo [5]
  Kp: 54
B. mallei; B. mallei, 30 strains
  MIC Range: 0.25 to 2 µg/mL
B. mallei; Burkholderia mallei
  MIC50: 1 µg/mL (≈ 1.18 µM)
  MIC90: 1 µg/mL (≈ 1.18 µM)
B. anthracis [6]; B. anthracis, 30 strains
  MIC Range: <0.008 to 0.015 µg/mL
B. anthracis [6]; Bacillus anthracis
  MIC50: < 0.008 µg/mL
  MIC90: < 0.008 µg/mL

## CC[C@H]1OC(=O)[C@H](C)[C@@H](O[C@H]2C[C@@](C)(OC)[C@@H](O)[C@H](C)O2)[C@H](C)[C@@H](O[C@@H]2O[C@H](C)C[C@H](N(C)C)[C@H]2O)[C@](C)(OC)C[C@@H](C)C(=O)[C@H](C)[C@@H](O)[C@]1(C)O [CLR, Clarithromycin]
[1]; ATCC33153
  MIC: 0.007 µg/mL (≈ 0.00936 µM)
[7]
  bioload when the time after the last dose was extended: bioload increases

## CC[C@H]1OC(=O)[C@H](C)C(=O)[C@H](C)[C@@H](O[C@@H]2O[C@H](C)C[C@H](N(C)C)[C@H]2O)[C@](C)(OC)C[C@@H](C)C(=O)[C@H](C)[C@H]2N(CCCCn3cnc(-c4cccnc4)c3)C(=O)O[C@]12C [TEL, Telithromycin]
[1]; ATCC33153
  MIC: 0.007 µg/mL (≈ 0.00862 µM)
[7]
  bioload when the time after the last dose was extended: bioload increases

## CC[C@H]1OC(=O)[C@H](C)C(=O)[C@H](C)[C@@H](O[C@@H]2O[C@H](C)C[C@H](N(C)C)[C@H]2O)[C@](C)(OC/C=C/c2cnc3ccccc3c2)C[C@@H](C)C(=O)[C@H](C)[C@H]2NC(=O)O[C@@]21C [cethromycin]
B. anthracis [8]
  MIC90 against B. anthracis, comparator antibiotics: 0.063 µg/mL (≈ 0.0823 µM)

## O=C(O)c1cn(C2CC2)c2cc(N3CCNCC3)c(F)cc2c1=O [ciprofloxacin]
B. anthracis [8]
  MIC90 against B. anthracis, comparator antibiotics: 0.031 µg/mL (≈ 0.0936 µM)
